Several values for one entry are separate records, joined by “and”; a condition that tells them apart may be missing. Equal entries are not always repeated.
What was measured:
[1] = target: bacterial EPSP synthase DGT-29 (GENBANK YP_322772.1) variant DGT-29 v6 (G→A at residue 96), SEQ ID NO:11 (Trichormus variabilis, UniProt Q3MAV9, G96A); test: In vitro kinetic assay (inorganic phosphate production, malachite green); settings: IC50 (glyphosate), values greater than 50 are estimates
Text: (§1) The novel DGT-14, DGT-12, DGT-18, DGT-29 and DGT-30 enzymes were obtained and the glycine to alanine mutation was introduced into the EPSP synthase enzymes at a location analogous to the G96A location described for the E. coli version of the EPSP synthase enzyme. The DGT-14 protein sequence was modified by introducing an alanine to replace the endogenous glycine of GENBANK ACC NO: ZP_01452683 at amino acid residue 101, thereby resulting in SEQ ID NO:1. The DGT-12 protein sequence was modified by introducing an alanine to replace the endogenous glycine of GENBANK ACC NO: ZP_01622155.1 at amino acid residue 111, thereby resulting in SEQ ID NO:7. The DGT-18 protein sequence was modified by introducing an alanine to replace the endogenous glycine of GENBANK ACC NO: NP_928909.1 at amino acid residue 96, thereby resulting in SEQ ID NO:9. The DGT-29 protein sequence was modified by introducing an alanine to replace the endogenous glycine of GENBANK ACC NO: YP_322772.1 at amino acid residue 96, thereby resulting in SEQ ID NO:11. The DGT-30 protein sequence was modified by introducing an alanine to replace the endogenous glycine of GENBANK ACC NO: ZP_02156189.1 at amino acid residue 96, thereby resulting in SEQ ID NO:13.
(§2) The synthesized genes were cloned into the pET28 expression vector.
(§3) Recombinant DGT proteins were overexpressed in Rosetta2™ (DE3) cells (Novagen, Madison, Wis.) from the constructs described above. A single colony was used to inoculate 50 mL starter cultures of LB containing chloramphenicol (25 μg/mL) and kanamycin (50 μg/mL) which were cultivated overnight at 37° C. The overnight cultures were used to inoculate 1 L of LB containing chloramphenicol (25 μg/mL) and kanamycin (50 μg/mL). The cultures were grown at 37° C. to an O.D.600=0.6 then placed in an ice water bath for 10 minutes. Expression of the target proteins was achieved by addition of IPTG to a final concentration of 500 μM. Induction was allowed to proceed overnight at 20° C. followed by harvesting via centrifugation at 8,000 rpm for 20 minutes. The cell pellets were stored at −80° C. until required for purification. All purification steps were carried out at 4° C.

[2] = target: bacterial EPSP synthase DGT-30 (GENBANK ZP_02156189.1) variant DGT-30 v6 (G→A at residue 96), SEQ ID NO:13 (Shewanella benthica, UniProt A9CYU9, G96A); test: as above; settings: IC50 (glyphosate)
Text: as §1, §2, §3

[3] = system: T4 Arabidopsis plants containing dgt-14 spiked into wildtype; test: dgt-14 as a selectable marker with glyphosate selection; assay type: in vivo, Arabidopsis thaliana; settings: applied 7 and 11 DAP, scored 17 DAP
Procedure: The use of dgt-14 as a selectable marker for glyphosate selection agent is tested with the Arabidopsis transformed plants described above. Approximately 50 T4 generation Arabidopsis seed (homozygous for dgt-14) are spiked into approximately 5,000 wildtype (sensitive to glyphosate) seed. The seeds are germinated and plantlets are sprayed with a selecting dose of glyphosate. Several treatments of glyphosate are compared; each tray of plants receives either one or two application timings of glyphosate in one of the following treatment schemes: 7 DAP (days after planting), 11 DAP, or 7 followed by 11 DAP. Since all plants also contain a glufosinate resistance gene in the same transformation vector, dgt-14 containing plants selected with glyphosate can be directly compared to DSM-2 or pat containing control plants selected with glufosinate.
Glyphosate treatments are applied with a DeVilbiss spray tip as previously described. Transgenic plants containing dgt-14 are identified as “resistant” or “sensitive” 17 DAP. […] Sensitive and resistant plants are counted and the number of glyphosate tolerant plants is found to correlate with the original number of transgenic seed containing the dgt-14 transgene which are planted.

[4] = system: Arabidopsis transformed with TraP5 v1::dgt-14 (pDAB102787); test: Postemergence glyphosate tolerance, visual injury; assay type: in vivo, Arabidopsis thaliana; settings: 2 weeks after application

SMILES: O=C(O)CNCP(=O)(O)O [glyphosate, N-(phosphonomethyl)glycine]
- IC50 ([1]; *determined at 100 μM PEP): > 80 mM
- IC50 ([1]; at 1 mM PEP): > 80 mM
- IC50 ([2]; at 60 μM PEP): 7.86 mM
- IC50 ([2]; at 1 mM PEP): 15.6 mM and 15.5 mM
- effective selection for transgenic plants [3]: 26.25-1680 g ae/ha
- Visual % injury (Ave) ([4]; T2, 840 g ae/ha): 90.0%
- Visual % injury (Ave) ([4]; T3, 840 g ae/ha): 86.3%

— patent US9873883B2, “Glyphosate resistant plants and associated methods” (Dow AgroSciences LLC, priority 2012, dated 2018)
